The target of this assay is human GSK3β (Homo sapiens, UniProt P49841). Nature of the assay: Screening for GSK3 inhibitory activity using a cell-free assay. As to conditions: read-out: IC50 with respect to GSK3. The assay is classed as biochemical. An outline of the steps:
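Compounds in DMSO were tested against human GSK3β over a three-hour kinase reaction. Radiolabeled phosphate transferred to the peptide was captured on streptavidin plates after EDTA/ATP stop and quantified by scintillation counting. Signal was plotted versus compound concentration.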

This note sets out measurements from patent publication US7425557B2, “Inhibitors of glycogen synthase kinase 3” (Novartis Vaccines and Diagnostics, Inc., priority 1998, dated 2008).

Chain of human GSK3β (P49841 whole entry): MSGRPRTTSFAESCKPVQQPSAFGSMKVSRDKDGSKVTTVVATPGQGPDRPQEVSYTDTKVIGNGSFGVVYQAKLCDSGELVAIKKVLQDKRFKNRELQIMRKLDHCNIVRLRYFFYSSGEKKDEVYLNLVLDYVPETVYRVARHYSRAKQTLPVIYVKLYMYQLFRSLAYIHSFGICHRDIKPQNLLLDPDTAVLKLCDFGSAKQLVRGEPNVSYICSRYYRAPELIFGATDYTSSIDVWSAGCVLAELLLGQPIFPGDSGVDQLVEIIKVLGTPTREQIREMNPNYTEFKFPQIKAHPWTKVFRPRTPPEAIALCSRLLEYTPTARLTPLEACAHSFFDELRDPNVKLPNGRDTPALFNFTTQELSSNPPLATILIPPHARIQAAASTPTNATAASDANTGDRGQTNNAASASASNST

A word on the IC50: it is the concentration needed to halve the response being measured. Turning to `CCOC(=O)c1cnc(NCCNc2ccc(C(F)(F)F)cn2)nc1-c1ccc(C#N)cc1` [ethyl 4-(4-cyanophenyl)-2-[(2-{[5-(trifluoromethyl)(2-pyridyl)]amino}ethyl)-amino]pyrimidine-5-carboxylate], the IC50 is not above 1 µM.
For `CCOC(=O)c1cnc(NCCNc2ccc([N+](=O)[O-])c(NC)n2)nc1-c1ccc(C#N)cc1` [ethyl 4-(4-cyanophenyl)-2-[(2-{[6-(methylamino)-5-nitro(2-pyridyl)]amino}ethyl)amino]pyrimidine-5-carboxylate] the value was not above 10 µM; for `CCOC(=O)c1cnc(NCCNc2ccc3ccccc3n2)nc1-c1ccc(C#N)cc1` [ethyl 4-(4-cyanophenyl)-2-{[2-(2-quinolylamino)ethyl]amino}pyrimidine-5-carboxylate], not above 10 µM; for `CCOC(=O)c1cnc(NCCc2cccc(OC)c2)nc1-c1ccc(C#N)cc1` [ethyl 4-(4-cyanophenyl)-2-{[2-(3-methoxyphenyl)ethyl]amino}pyrimidine-5-carboxylate], not above 10 µM.
Next, `CCOC(=O)c1cnc(NCCNc2ncccn2)nc1-c1ccc(C#N)cc1` [ethyl 4-(4-cyanophenyl)-2-{[2-(pyrimidin-2-ylamino)ethyl]amino}pyrimidine-5-carboxylate]: not above 10 µM.
Next, `CCOC(=O)c1cnc(NCCNc2ccc([N+](=O)[O-])cn2)nc1-c1ccc(CC)cc1` [ethyl 4-(4-ethylphenyl)-2-({2-[(5-nitro(2-pyridyl))amino]ethyl}amino)pyrimidine-5-carboxylate]: not above 1 µM; `CCOC(=O)c1cnc(NCCNc2ccc([N+](=O)[O-])cn2)nc1-c1ccc(F)cc1` [ethyl 4-(4-fluorophenyl)-2-({2-[(5-nitro(2-pyridyl))amino]ethyl}amino)pyrimidine-5-carboxylate]: not above 1 µM; `CCOC(=O)c1cnc(NCCc2ccccn2)nc1-c1ccc(F)cc1` [ethyl 4-(4-fluorophenyl)-2-[(2-(2-pyridyl)ethyl)amino]pyrimidine-5-carboxylate]: not above 10 µM.
Consider `CCOC(=O)c1cnc(NCCNc2ccc([N+](=O)[O-])cn2)nc1-c1ccc(OC)cc1` [ethyl 4-(4-methoxyphenyl)-2-({2-[(5-nitro(2-pyridyl))amino]ethyl}amino)pyrimidine-5-carboxylate], for which the IC50 was not above 1 µM.
For the compound `CCOC(=O)c1cnc(NCCc2ccccn2)nc1-c1ccc(OC)cc1` [ethyl 4-(4-methoxyphenyl)-2-[(2-(2-pyridyl)ethyl)amino]pyrimidine-5-carboxylate], the IC50 was not above 10 µM.
For the compound `CCOC(=O)c1cnc(NCCNc2ccc([N+](=O)[O-])cn2)nc1-c1ccc(C)cc1` [ethyl 4-(4-methylphenyl)-2-({2-[(5-nitro(2-pyridyl))amino]ethyl}amino)pyrimidine-5-carboxylate], the IC50 was not above 1 µM.
As to `CCOC(=O)c1cnc(NCCNc2ccc([N+](=O)[O-])cn2)nc1-c1ccc(SC)cc1` [ethyl 4-(4-methylthiophenyl)-2-({2-[(5-nitro(2-pyridyl))amino]ethyl}amino)pyrimidine-5-carboxylate], the IC50 is not above 1 µM.
For `CCOC(=O)c1cnc(NCCNc2ccc([N+](=O)[O-])cn2)nc1-c1cncc(Br)c1` [ethyl 4-(5-bromo(3-pyridyl))-2-({2-[(5-nitro(2-pyridyl))amino]ethyl}amino)pyrimidine-5-carboxylate] the value was not above 10 µM; for `CCOC(=O)c1cnc(NCCNc2ccc([N+](=O)[O-])cn2)nc1-c1ccc(N2CCOCC2)nc1` [ethyl 4-(6-morpholin-4-yl(3-pyridyl))-2-({2-[(5-nitro(2-pyridyl))amino]-ethyl}amino)pyrimidine-5-carboxylate], not above 1 µM.
For `CCOC(=O)c1ccc(-c2ccnc(NCCNc3ccc([N+](=O)[O-])cn3)n2)cc1` [ethyl 4-[2-({2-[(5-nitro-2-pyridyl)amino]ethyl}amino)pyrimidin-4-yl]benzoate] the value was not above 10 µM; for `CCOC(=O)c1cnc(NCCNc2ccc([N+](=O)[O-])cn2)nc1-c1cc(C(F)(F)F)cc(C(F)(F)F)c1` [ethyl 4-[3,5-bis(trifluoromethyl)-phenyl]-2-({2-[(5-nitro(2-pyridyl))amino]ethyl}amino)pyrimidine-5-carboxylate], not above 10 µM; for `CCOC(=O)c1cnc(NCCNc2ccc([N+](=O)[O-])cn2)nc1-c1ccc(N(CC)CC)cc1` [ethyl 4-[4-(diethylamino)phenyl]-2-({2-[(5-nitro(2-pyridyl))amino]ethyl}-amino)pyrimidine-5-carboxylate], not above 10 µM.
For the compound `CCOC(=O)c1cnc(NCCNc2ccc([N+](=O)[O-])cn2)nc1-c1ccc(N(C)C)cc1` [ethyl 4-[4-(dimethylamino)phenyl]-2-({2-[(5-nitro(2-pyridyl))amino]ethyl}-amino)pyrimidine-5-carboxylate], the IC50 is not above 1 µM.
For `CCOC(=O)c1cnc(NCCNc2ccc([N+](=O)[O-])cn2)nc1-c1ccc(S(C)(=O)=O)cc1` [ethyl 4-[4-(methyl-sulfonyl)phenyl]-2-({2-[(5-nitro(2-pyridyl))amino]ethyl}amino)pyrimidine-5-carboxylate] the value was not above 1 µM; for `CCOC(=O)c1cnc(NCCNc2ccc([N+](=O)[O-])cn2)nc1-c1ccc(C(C)(C)C)cc1` [ethyl 4-[4-(tert-butyl)-phenyl]-2-({2-[(5-nitro(2-pyridyl))amino]ethyl}amino)pyrimidine-5-carboxylate], not above 1 µM; for `CCOC(=O)c1cnc(NCCNc2ccc([N+](=O)[O-])cn2)nc1Nc1ccc(Cl)cc1Cl` [ethyl 4-[(2,4-dichlorophenyl)amino]-2-({2-[(5-nitro(2-pyridyl))amino]-ethyl}amino)pyrimidine-5-carboxylate], not above 10 µM.
On to `CCOC(=O)c1cnc(NCCNc2ccc([N+](=O)[O-])cn2)nc1NCc1ccccc1Cl` [ethyl 4-{[(2-chlorophenyl)methyl]amino}-2-({2-[(5-nitro(2-pyridyl))amino]ethyl}amino)pyrimidine-5-carboxylate], for which the IC50 was not above 10 µM.
In the case of `CCOC(=O)c1cnc(NCCNc2ccc([N+](=O)[O-])cn2)nc1NCc1cccc(Br)c1` [ethyl 4-{[(3-bromophenyl)methyl]amino}-2-({2-[(5-nitro(2-pyridyl))amino]ethyl}amino)pyrimidine-5-carboxylate], the IC50 was not above 10 µM.
For `CCOC(=O)c1cnc(NCCNc2ccc([N+](=O)[O-])cn2)nc1NCc1ccc(C#N)cc1` [ethyl 4-{[(4-cyanophenyl)methyl]amino}-2-({2-[(5-nitro(2-pyridyl))amino]-ethyl}amino)pyrimidine-5-carboxylate] the value was not above 1 µM.
Next, `CCOC(=O)c1cnc(NCCNc2ccc([N+](=O)[O-])cn2)nc1-c1ccc(N2CCOCC2)cc1` [ethyl-4-(morpholin-4-ylphenyl)-2-({2-[(5-nitro(2-pyridyl))amino]ethyl}amino)pyrimidine-5-carboxylate]: not above 1 µM; `COC(=O)c1cnc(NCCNc2ccc([N+](=O)[O-])cn2)nc1-c1cccnc1` [methyl 2-({2-[(5-nitro(2-pyridyl))amino]ethyl}amino)-4-(3-pyridyl)pyrimidine-5-carboxylate]: not above 10 µM.
For `COC(=O)c1cnc(NCCNc2ccc([N+](=O)[O-])cn2)nc1-c1ccc(C#N)cc1` [methyl 4-(4-cyanophenyl)-2-({2-[(5-nitro(2-pyridyl))amino]ethyl}amino)pyrimidine-5-carboxylate] the value was not above 1 µM; for `CCOC(=O)c1cnc(NCCNc2ccc(C(=O)OC)cn2)nc1-c1ccc(C#N)cc1` [methyl 6-[(2-{[4-(4-cyanophenyl)-5-(ethoxycarbonyl)pyrimidin-2-yl]amino}ethyl)amino]pyridine-3-carboxylate], not above 10 µM.
Take `N#Cc1ccc(-c2nc(NCCNc3ccc([N+](=O)[O-])cn3)ncc2C(=O)OCc2ccccc2)cc1` [phenylmethyl 4-(4-cyanophenyl)-2-({2-[(5-nitro(2-pyridyl))amino]ethyl}amino)pyrimidine-5-carboxylate]: the IC50 is not above 1 µM.
For `CC(C)(C)OC(=O)c1cnc(NCCNc2ccc([N+](=O)[O-])cn2)nc1-c1ccc(C#N)cc1` [tert-butyl 4-(4-cyanophenyl)-2-({2-[(5-nitro(2-pyridyl))amino]-ethyl}amino)pyrimidine-5-carboxylate] the value was not above 1 µM; for `CCOC(=O)c1cnc(NCCNc2ccc(C(=O)OC(C)(C)C)cn2)nc1-c1ccc(C#N)cc1` [tert-butyl 6-[(2-{[4-(4-cyanophenyl)-5-(ethoxycarbonyl)pyrimidin-2-yl]amino}ethyl)amino]pyridine-3-carboxylate], not above 10 µM; for `O=[N+]([O-])c1ccc(NCCNc2nccc(-c3cnccn3)n2)nc1` [{2-[(5-nitro(2-pyridyl))amino]ethyl}(4-pyrazin-2-ylpyrimidin-2-yl)amine], not above 10 µM.
`O=[N+]([O-])c1ccc(NCCNc2ncc([N+](=O)[O-])c(-c3ccccc3)n2)nc1` [{2-[(5-nitro(2-pyridyl))amino]ethyl}(5-nitro-4-phenylpyrimidin-2-yl)amine]: the IC50 is not above 1 µM.
Next, `O=[N+]([O-])c1ccc(NCCNc2ccc([N+](=O)[O-])c(NCc3ccccc3)n2)nc1` [{2-[(5-nitro(2-pyridyl))amino]ethyl}{5-nitro-6-[benzylamino](2-pyridyl)}amine]: not above 10 µM; `Cc1c[nH]c(-c2cnc(NCCNc3ccc([N+](=O)[O-])c(N)n3)nc2-c2ccc(Cl)cc2Cl)n1` [{2-[(6-amino-5-nitro(2-pyridyl))amino]-ethyl}[4-(2,4-dichlorophenyl)-5-(4-methylimidazol-2-yl)pyrimidin-2-yl]amine]: not above 1 µM; `Nc1nc(NCCNc2ncc(N3CCNCC3)c(-c3ccc(Cl)cc3Cl)n2)ccc1[N+](=O)[O-]` [{2-[(6-amino-5-nitro(2-pyridyl))amino]-ethyl}[4-(2,4-dichlorophenyl)-5-piperazinylpyrimidin-2-yl]amine]: not above 1 µM.
